Measurements taken from patent publication US20210290784A1, “POSITRON EMISSION TOMOGRAPHY (PET) RADIOTRACERS FOR IMAGING MACROPHAGE COLONY-STIMULATING FACTOR 1 RECEPTOR (CSF1R) IN NEUROINFLAMMATION” (The Johns Hopkins University, priority 2018, published 2021).
Each block holds one compound with its values, some of them ahead of it.

Tests used:
CSF1R [1] = molecular target: T1, CSF1R (Mus musculus, UniProt P09581); details: i.p.-LPS mice, blocker 1 mg/kg i.p., 5 min before radiotracer
T1 sequence (P09581 20-977): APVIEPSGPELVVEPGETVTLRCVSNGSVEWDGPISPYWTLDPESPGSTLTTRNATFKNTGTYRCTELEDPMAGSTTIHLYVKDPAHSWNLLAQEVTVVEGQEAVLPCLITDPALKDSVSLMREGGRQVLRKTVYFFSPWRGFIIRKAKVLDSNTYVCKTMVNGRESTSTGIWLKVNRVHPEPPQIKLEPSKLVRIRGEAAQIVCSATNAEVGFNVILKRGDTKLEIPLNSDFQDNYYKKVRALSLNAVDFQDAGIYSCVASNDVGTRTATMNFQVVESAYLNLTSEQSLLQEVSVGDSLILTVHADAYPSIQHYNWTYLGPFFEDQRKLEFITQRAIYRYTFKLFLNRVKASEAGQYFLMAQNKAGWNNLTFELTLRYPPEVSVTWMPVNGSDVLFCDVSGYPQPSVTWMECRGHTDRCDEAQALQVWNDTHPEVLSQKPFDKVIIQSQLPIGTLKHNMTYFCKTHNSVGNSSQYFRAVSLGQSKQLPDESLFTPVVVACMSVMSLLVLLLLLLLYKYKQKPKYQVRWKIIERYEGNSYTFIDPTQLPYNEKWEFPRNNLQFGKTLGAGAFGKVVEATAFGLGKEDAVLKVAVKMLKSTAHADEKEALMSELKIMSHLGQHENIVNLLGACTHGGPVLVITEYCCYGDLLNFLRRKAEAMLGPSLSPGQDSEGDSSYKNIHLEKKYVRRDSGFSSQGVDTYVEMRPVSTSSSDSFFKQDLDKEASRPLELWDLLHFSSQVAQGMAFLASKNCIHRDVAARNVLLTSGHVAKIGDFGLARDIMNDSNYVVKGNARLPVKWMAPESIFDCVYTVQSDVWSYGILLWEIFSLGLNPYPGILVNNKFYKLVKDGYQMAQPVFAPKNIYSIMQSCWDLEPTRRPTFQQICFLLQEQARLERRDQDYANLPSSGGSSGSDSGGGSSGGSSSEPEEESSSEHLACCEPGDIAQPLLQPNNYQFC

CSF1R [2] = molecular target: CSF1R (Homo sapiens, UniProt P07333); assay: CSF1R competition binding assay, KinomeScan, DiscoverX; set-up: purchased DiscoverX; details: commercial assay
CSF1R (Homo sapiens, UniProt P07333), sequence (P07333 20-972, species assumed): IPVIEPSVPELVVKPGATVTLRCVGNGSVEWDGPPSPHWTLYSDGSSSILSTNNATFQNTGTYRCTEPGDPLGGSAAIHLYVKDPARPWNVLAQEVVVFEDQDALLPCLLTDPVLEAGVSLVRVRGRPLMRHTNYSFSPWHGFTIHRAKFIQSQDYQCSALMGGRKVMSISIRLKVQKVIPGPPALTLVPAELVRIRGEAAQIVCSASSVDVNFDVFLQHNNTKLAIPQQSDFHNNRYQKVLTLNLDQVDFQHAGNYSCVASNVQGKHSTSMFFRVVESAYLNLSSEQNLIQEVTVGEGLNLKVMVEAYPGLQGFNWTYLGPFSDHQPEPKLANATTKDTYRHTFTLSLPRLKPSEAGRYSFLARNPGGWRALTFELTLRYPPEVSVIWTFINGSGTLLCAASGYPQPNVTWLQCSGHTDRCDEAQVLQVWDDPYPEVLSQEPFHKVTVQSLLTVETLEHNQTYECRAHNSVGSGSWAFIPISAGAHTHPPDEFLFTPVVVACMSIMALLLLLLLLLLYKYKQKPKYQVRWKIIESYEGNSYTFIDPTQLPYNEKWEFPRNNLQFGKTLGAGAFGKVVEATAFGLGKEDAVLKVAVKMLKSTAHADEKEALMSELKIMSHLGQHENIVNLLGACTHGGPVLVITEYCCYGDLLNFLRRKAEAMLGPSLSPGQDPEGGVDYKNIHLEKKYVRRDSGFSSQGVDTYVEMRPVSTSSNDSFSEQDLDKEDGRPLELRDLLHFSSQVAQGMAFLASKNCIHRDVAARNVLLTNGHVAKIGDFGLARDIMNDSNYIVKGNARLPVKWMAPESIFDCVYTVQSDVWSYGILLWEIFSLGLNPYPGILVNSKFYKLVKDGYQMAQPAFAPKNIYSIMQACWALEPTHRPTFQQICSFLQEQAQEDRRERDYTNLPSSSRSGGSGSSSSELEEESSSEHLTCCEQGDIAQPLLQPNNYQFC

CSF1R Human RTK Kinase = molecular target: T2, CSF1R Human RTK Kinase (Homo sapiens, UniProt P07333); assay: CSF1R Human RTK Kinase, Enzymatic Radiometric Assay, Eurofins; assay type: biochemical; details: commercial assay
T2 construct: purchased Eurofins
T2 sequence (P07333 20-972): as the sequence (P07333 20-972, species assumed) above

microglia = details: chronic treatment of mice; cited from earlier work
TSPO = molecular target: T3, TSPO (Rattus norvegicus, UniProt P16257); details: LPS-treated rats; cited from earlier work
T3 construct: host or cells: LPS-treated rats (cited study)

Compound: CN1CCN(c2ccc(NC(=O)c3ccc(C#N)o3)c(N3CCCCC3)c2)CC1 [1a JHU11744, 5-Cyano-N-(4-(4-methylpiperazin-1-yl)-2-(piperidin-1-yl)phenyl)furan-2-carboxamide]
blocking of [11C]CPPC SUVR uptake by CSF1R inhibitor (CSF1R [1]): significantly decreased the uptake to the control level

Kd (CSF1R [2]): > 1000 nM
Compound: CN1CCN(c2ccc(NC(=O)c3cc(C#N)co3)c(N3CCCCC3)c2)CC1 [1g JHU11765, 4-Cyano-N-(4-(4-methylpiperazin-1-yl)-2-(piperidin-1-yl)phenyl)furan-2-carboxamide]

Kd (CSF1R [2]): > 1000 nM
Compound: CN1CCN(c2ccc(NC(=O)c3coc(C#N)c3)c(N3CCCCC3)c2)CC1 [1h JHU11766, 5-Cyano-N-(4-(4-methylpiperazin-1-yl)-2-(piperidin-1-yl)phenyl)furan-3-carboxamide]

Kd (CSF1R [2]): 30 nM
Compound: CN1CCN(c2ccc(NC(=O)c3cccc(F)n3)c(N3CCCCC3)c2)CC1 [1i JHU11767, 6-Fluoro-N-(4-(4-methylpiperazin-1-yl)-2-(piperidin-1-yl)phenyl)picolinamide]

Kd (CSF1R [2]): 32 nM | IC50 (CSF1R Human RTK Kinase): 12.9 nM
Compound: N#Cc1ccc(C(=O)Nc2ccc(N3CCN(CCF)CC3)cc2N2CCCCC2)o1 [1k JHU11763, 5-Cyano-N-(4-(4-(2-fluoroethyl)piperazin-1-yl)-2-(piperidin-1-yl)phenyl)furan-2-carboxamide]

IC50 (CSF1R Human RTK Kinase): 3.14 nM
Compound: CC1CCN(c2cc(N3CCN(CCF)CC3)ccc2NC(=O)c2cc(C#N)c[nH]2)CC1 [1l JHU11764, 4-Cyano-N-(4-(4-(2-fluoroethyl)piperazin-1-yl)-2-(4-methylpiperidin-1-yl)phenyl)-1H-pyrrole-2-carboxamide]

Compound: FC(F)(F)c1ccc(CNc2ccc(Cc3c[nH]c4ncc(Cl)cc34)cn2)cn1 [PLX3397, pexidartinib]
depletion of microglia (microglia): 90%

Compound: CCC(C)N([11CH3])C(=O)c1cc2ccccc2c(-c2ccccc2Cl)n1 (stereo not drawn) [[^11C]PK11195]
BP value (TSPO): 0.47
